Data on 2 molecules can be found in patent US20160355782A1, “METHOD FOR ENHANCING DIFFERENTIATION OF DOPAMINERGIC NEURONS” (Buddhist Tzu Chi Medical Foundation, priority 2015, published 2016).

Experiment [1] relates to TH promoter in SH-SY5Y cells. The experiment in a line: TH promoter assay (pTH6.0-GL3 luciferase) in SH-SY5Y cells. The format is cell-based, human. Particulars: 24 hours; for elicited TH promoter activity on forced MeCP2 or CoREST expression / elicited TH promoter activity on co-transfection with HDAC1: 1 μM UCN or 1.25 mM SB; for elicited TH promoter activity on co-transfection with HDAC1: pK7-HDAC1 co-transfection. An excerpt:
The luciferase reporter vector pTH6.0-GL3 constructed by engineering the 6.0 kb upstream sequences of the rat TH (TH6.0) gene into pGL3 was kindly provided by Dr. Kwang-Soo Kim (Harvard Medical School, Belmont, Mass.). Vector expressing Nurr1 (mouse) was constructed by inserting the respective cDNA into pAAV-MCS vector (pAAV-Nurr1), in which the cloned gene is designed to be expressed under the control of the cytomegalovirus (CMV) immediate-early promoter. pTH6.0-GL3 alone or combined with pAAV-Nurr1 were transfected into a human neuro-blastoma SH-SY5Y cell line or cortical NPCs, respectively, using Lipofectamine 2000 (Invitrogen) according to the protocol of the manufacturer. For determine the effect of MeCP2-CoREST-HDAC1 repressor complex on TH promoter activity, the SH-SY5Y cells were double transfected with pTH6.0-GL3 and pCMV6-Entry-Mecp2 (Flag-tagged MeCP2)/or pCMV6-Entry-Rcor1 (Flag-tagged CoREST) (both from OriGene Technologies, Rockville, Md.)/or pK7-HDAC1-GFP (Addgene). At 24 h after transfection, cells were treated with 1 μM UCN or 1.25 mM SB for another 24 h. Luciferase activity of cell lysates was determined luminometrically by the luciferase assay system (Promega, Madison, Wis.) as specified by the manufacturer. Luciferase activity was normalized to the protein content of the extracts. Relative luciferase activity was determined to reflect promoter activity of TH, expressed as the fold increase relative to the activity of control or untreated mock control.

In experiment [2] the test system is VM precursor cultures. The experiment in a line: Immuno-cytochemistry and TH+ cell counting in VM precursor cultures. The format is cell-based, rat. The procedure: Briefly, ventral mesencephalic tissues were dissected from E14.5 Sprague-Dawley (SD) rats, and then dissociated enzymatically (0.1% trypsin) and mechanically. Cells were seeded into 24-well (1×10^5/cm^2) culture plates pre-coated with 20 μg/mL poly-D-lysine (Sigma-Aldrich), and were maintained in 0.5 mL/well of minimum essential medium (MEM) supplemented with 10% fetal bovine serum (FBS), 10% horse serum (HS), 1 g/L glucose, 2 mM L-glutamine, 1 mM sodium pyruvate, 100 μM nonessential amino acids, 100 U/mL penicillin, and 100 μg/mL streptomycin (all purchased from Invitrogen). Cultures were maintained at 37° C. in a humidified atmosphere of 5% CO2 and 95% air. For DA neuron differentiation, VM precursor cultures, four hours after seeding, were switched to Dulbecco's Modified Eagle's Medium (DMEM)/Ham's F12 (1:1) containing N2 supplement (Invitrogen, Carlsbad, Calif.), penicillin and streptomycin. Immediately following the switch to DMEM/F12 medium, VM precursor cells were treated with various concentration of rat UCN (from Sigma-Aldrich, St. Louis, Mo.) for the indicated periods. For neutralization of endogenous UCN bioactivity, anti-UCN antibody (15 μg/mL) (Santa Cruz Biotechnology, Santa Cruz, Calif.) was added to the VM precursor cultures.
For immuno-cytochemistry, cells were fixed with 4% paraformaldehyde followed by blocking with PBS containing 0.4% Triton X-100, 3% normal goat serum and 2% bovine serum albumin (BSA) for 1 h at room temperature. After blocking, cells were incubated overnight at room temperature with primary antibodies. Primary antibodies were rabbit anti-UCN (1:200), mouse anti-TH (1:2000) (both from Sigma-Aldrich), goat anti-CRHR1 (1:100), rabbit anti-CRHR2 (1:250), rat anti-dopamine transporter (DAT, 1:200), chicken anti-MAP2 (1:5000) (all from Abcam, Cambridge, Mass.), rabbit anti-Nurr1 (1:100, Santa Cruz Biotechnology), mouse anti-Nurr1 (1:100, R&D Systems, Minneapolis, Minn.), rabbit anti-TH (1:1000), mouse anti-NeuN (1:200) (both from Chemicon, Temecula, Calif.), rabbit anti-acetyl-histone H3 (1:1000, Upstate Biotechnology, Lake Placid, N.Y.), rabbit anti-Foxa2 (1:500, Cell Signaling Technology), and rabbit anti-Pitx3 (1:100, Invitrogen).
For detection of dopaminergic neurons, the bound anti-TH antibody was visualized by incubation with an appropriate biotinylated secondary antibody followed by the Vectastain avidin-biotin-peroxidase (ABC) reagents (Vector Laboratories, Burlingame, Calif.) and color development with 3,3′-diaminobenzidine. The number of TH-positive neurons were counted in the entire surface area of a culture well or coverslip. For fluorescent double-labeling experiments, cells were incubated for 1 h at room temperature with rhodamine-conjugated donkey anti-mouse IgG (1:250), FITC-conjugated goat anti-rabbit IgG (1:250) or FITC-conjugated donkey anti-goat IgG (1:200) secondary antibodies (all from Jackson Immuno Research, West Grove, Pa.). Samples were counter-stained with Hoechst 33342 (5 μg/mL, Sigma-Aldrich) or DAPI (1 μg/mL), and mounted with 50% glycerol in PBS. Microscopic observations were done with a Zeiss Axiovert 200 M fluorescent microscope or a Zeiss LSM 510 META confocal imaging system (Carl Zeiss, Oberkochen, Germany). Immuno-reactive or Hoechst 33342-stained cells were counted in at least 10 random areas of each culture coverslip at a magnification of 100×.

For experiment [3], the system named is rat TH promoter. The experiment in a line: ChIP at the TH promoter with chromatin from E15.5 VM tissue of treated embryos. The class given is in vivo. The settings on record: 10 μg/kg UCN i.p. every 24 h for 3 days. The procedure: VM precursor cultures were treated with 1 μM UCN for about 1 to 2 days. VM cells for ChIP from rat embryos, the pregnant rats on day 12.5 of gestation were intra-peritoneally injected with saline as control or 10 μg/kg UCN as treatment every 24 h for 3 days before sacrifice. The ventral mesencephalon from E15.5 embryos was dissected. Cells were cross-linked with 1% formaldehyde, and stored at −80° C. before use.
Chromatin immuno-precipitation (ChIP) assays were performed using SimpleChIP® Enzymatic Chromatin IP kit (Cell Signaling Technology, Beverly, Mass.) by the instruction of the kit. Briefly, cross-linked chromatin in the cells was enzymatic digested to generate fragments with a length of approximately 150-900 bp (1 to 5 nucleosomes). The chromatin was subjected to immuno-precipitation using the following antibodies: anti-Nurr1 (Santa Cruz), anti-acetyl histone H3 (Ac-H3), anti-HDAC1, anti-CoREST (all from Upstate Biotechnology), anti-MeCP2 (Chemicon,), anti-Foxa2 (Cell signaling Technology), anti-Pitx3, and IgG (both from Abcam). Immuno-precipitated DNA fragments were collected by protein G magnetic beads. DNA/protein complexes were eluted from the beads and reverse cross-linked at 65° C. for 2 h in the presence of proteinase K. Purified DNA were subjected to real-time PCR using primers specific to rat TH promoter loci (referring to Table 2). […]

Consider `CCCC(=O)[O-].[Na+]` [SB, sodium butyrate, reference compound], for which, in experiment [1], the “elicited TH promoter activity on forced MeCP2 or CoREST expression” value is “attenuation” and the “elicited TH promoter activity on co-transfection with HDAC1” value is reported as “significantly attenuated”. Further, the TH promoter activity result in experiment [1] (1.25 mM SB) is reported as “increase TH promoter activity”. Further, in experiment [2] (1.25 mM SB, 3 days), the “% TH+ cells out of total Nurr1+ cells (conversion of Nurr1+ precursors)” value is reported as “increased DA cell numbers was through conversion of Nurr1^+ precursors into DA neurons” and the “cells with TH staining” value is on record as “increase in cells with TH staining”.
On to Urocortin [UCN], for which, in experiment [3], the “Nurr1 binding to the TH promoter regions (NB2, NB3 and repeated CpGs)” value was “more abundant”; the “histone H3 acetylation in TH promoter regions” value is recorded as “significantly increased”. Moreover, in experiment [1], the “elicited TH promoter activity on forced MeCP2 or CoREST expression” value is recorded as “attenuation” and the “elicited TH promoter activity on co-transfection with HDAC1” value is “significantly attenuated”. Moreover, the “TH promoter activity (relative luciferase activity)” value in experiment [1] (1 μM UCN) is “activation of the TH promoter”. The “number of TH+ neurons over time” value in experiment [2] (1 μM UCN as early as 1 day in vitro vs control medium at 4 days in vitro) is “clearly higher than that of control medium”. In addition, in experiment [2] (1 μM UCN, 2 to 3 days), the Nurr1-immuno-reactive intensity result was “increased”; the “level of Foxa2 and Pitx3 in Nurr1+ cells” value is on record as “increased level”. Besides, the “TH+ cells co-expressing NeuN, MAP2 and DAT” value in experiment [2] (1 μM UCN, 4 days, double immuno-staining) is “all the TH^+ cells”. In addition, the “number of Nurr1+ cells” value in experiment [2] (UCN treated cultures (control 4.91%±0.54%)) is 4.68%±0.4%. Moreover, the “differentiation of Nurr1+/TH- precursors into Nurr1+/TH+ DA neurons” value in experiment [2] (UCN vs control) is given as “more Nurr1^+ cells develop concomitant TH^+ expression”. Further, in experiment [2] (increasing doses of UCN, 3 days), the “numbers of TH+ cells” value is “dose-dependent increase”.
